Data reported in patent publication US6660718B1, “3-modified leucomycin derivatives” (Meiji Seika Kaisha, Ltd., priority 1999, dated 2003).
Converted amounts (≈) assume the structure as drawn.

Assays:
[1] = system: Haemophilus influenzae 9334; assay: Antibacterial activity test (agar dilution MIC); format: cell-based; details: agar plates, 37° C., about 20 hours
Protocol: (§1) In vitro antibacterial activities of the compounds of Examples 3, 5, 20, 23, 25 and 48 were determined as follows by referring to the standard method of the Japanese Society of Chemotherapy (Chemotherapy, 29, pp.76-79, 1981). For comparison, antibacterial activities of rokitamycin (RKM), leucomycin-A7 (LM-A7) and the compound described in U.S. Pat. No. 5,407,918, Example 7 were determined in the same manner.
(§2) For a solution of each test drug dissolved in methanol at 5000 μg/ml, a series of 2-fold dilutions were prepared. 200 μl of each solution of the test drug was added in a petri dish, added with 10 ml of agar medium for susceptibility measurement supplemented with 5% of sterile horse defibrinated blood, 15 μg/ml of β-nicotinamide adenine dinucleotide and 5 μg/ml of Hemin, and then mixed to prepare agar plates containing the test drug. A given volume of a culture broth for susceptibility measurement, which was prepared to contain a given cell numbers of bacteria to be tested, was inoculated to the agar plates containing the test drug by using a micro planter (Sakuma Seisakusho). After the inoculation, cultivation was carried out at 37° C. for about 20 hours. After the culture, presence or absence of the growth of the test bacteria on the plates was observed by visual inspection, and the minimum concentration at which no growth was observed was determined as minimum inhibitory concentration (MIC) of each test drug for each of the test bacteria The results are shown in Tables 1-1, 1-2 and 1-3.

[2] = system: Micrococcus luteus ATCC9341; assay: Antibacterial activity test (agar dilution MIC); format: cell-based; details: agar plates, 37° C., about 20 hours
Protocol: as §1, §2

[3] = system: Moraxella catarrhalis W-0500; assay: Antibacterial activity test (agar dilution MIC); format: cell-based; details: 37° C., about 20 hours; for Minimum inhibitory concentration (MIC): agar plates
Protocol: as §1, §2

[4] = system: Staphylococcus aureus 209P JC-1; assay: Antibacterial activity test (agar dilution MIC); format: cell-based; details: agar plates, 37° C., about 20 hours
Protocol: as §1, §2

[5] = system: Staphylococcus aureus MS15027 (ermC methylase); assay: Antibacterial activity test (agar dilution MIC); format: cell-based; details: for Minimum inhibitory concentration (MIC): Staphylococcus aureus MS15027 (ermC methylase), agar plates, 37° C., about 20 hours
Protocol: as §1, §2

[6] = system: Streptococcus pneumoniae DP1 TypeI; assay: Antibacterial activity test (agar dilution MIC); format: cell-based; details: agar plates, 37° C., about 20 hours
Protocol: as §1, §2

[7] = system: Streptococcus pneumoniae PRC-53 (mefE efflux); assay: Antibacterial activity test (agar dilution MIC); format: cell-based; details: for Minimum inhibitory concentration (MIC): Streptococcus pneumoniae PRC-53 (mefE efflux), agar plates, 37° C., about 20 hours
Protocol: as §1, §2

[8] = system: Streptococcus pyogenes Cook; assay: Antibacterial activity test (agar dilution MIC); format: cell-based; details: agar plates, 37° C., about 20 hours
Protocol: as §1, §2

[9] = format: in vitro ADME; details: 4 h
Protocol: Stability of the compound of Example 3 in plasma was studied as follows. Stability of RKM in plasma was also studied in the same manner for comparison. Blood was collected from rat ventral aorta and centrifuged (3000 rpm, 15 minutes) to separate plasma. 10 μl of a solution of a test drug dissolved in methanol at a concentration of 1600 μg/ml was added to 190 μl of the rat plasma and reacted at 37° C. At the start of the reaction and after 1, 2 and 4 hours, a part of the reaction mixture was collected and added with a given volume of an acetonitrile solution to prepare a bioassay sample for measurement of test medicament concentration. […] After the incubation, the diameter of the ring by growth inhibition of Micrococcus luteus ATCC9341 observed around the paper disc was measured by using a digital caliper. […] Based on a calibration curve obtained from concentrations of the standard solutions and diameters of growth inhibition rings, concentrations of the test drug in the samples at several time points were calculated, and then, by using the calculated remaining concentrations of the test drug in the samples at the time points, ratios of activity (%) based on the concentration at the start of the reaction, which was taken as 100%, were calculated. […]

[10] = system: Gram-positive bacteria; assay: Antibacterial activity test, overall comparison; format: cell-based; details: for enhancement of the antibacterial activity compared to RKM and LM-A7: comparison of MIC values of Tables 1-1 and 1-2
Protocol: as §1, §2

[11] = system: Streptococcus pneumoniae IP692; assay: Antibacterial activity test (agar dilution MIC); format: cell-based; details: agar plates, 37° C., about 20 hours
Protocol: as §1, §2

[12] = system: Streptococcus pneumoniae PRC-91 (ermAM methylase); assay: Antibacterial activity test (agar dilution MIC); format: cell-based; details: agar plates, 37° C., about 20 hours
Protocol: as §1, §2

[13] = system: Streptococcus pneumoniae TH-662 (ermAM methylase); assay: Antibacterial activity test (agar dilution MIC); format: cell-based; details: agar plates, 37° C., about 20 hours
Protocol: as §1, §2

[14] = system: resistant strains of Streptococcus pneumoniae; assay: Antibacterial activity test, resistant strains, comparison; format: cell-based; details: comparison of MIC values of Table 1-3; reversed versus natural configuration at 3-position
Protocol: as §1
as §2, with “A given volume of a culture broth for susceptibility measurement, which was prepared to contain a given cell numbers of bacteria to be tested, was inoculated to the agar plates containing the test drug by using a micro planter (Sakuma Seisakusho). After the inoculation, cultivation was carried out at 37° C. for about 20 hours.” left out

[15] = read-out: Minimum inhibitory concentration (MIC)

SMILES	Minimum inhibitory concentration (MIC) [1]	Minimum inhibitory concentration (MIC) [2]	Minimum inhibitory concentration (MIC) [3]	Minimum inhibitory concentration (MIC) [4]	Minimum inhibitory concentration (MIC) [5]	Minimum inhibitory concentration (MIC) [6]	Minimum inhibitory concentration (MIC) [7]	Minimum inhibitory concentration (MIC) [8]	Minimum inhibitory concentration (MIC) [11]	Minimum inhibitory concentration (MIC) [12]	Minimum inhibitory concentration (MIC) [13]	also measured
CCCC(=O)OC1C(C)OC(OC2C(C)OC(OC3C(CC=O)CC(C)C(O)C=CC=CCC(C)OC(=O)CC(OC)C3OC)C(O)C2N(C)C)CC1(C)OC(=O)CC (centres unmarked) [Example 3, 3-O-Methylrokitamycin]	3.13 µg/mL (≈ 3.72 µM)	0.025 µg/mL (≈ 0.0297 µM)	0.20 µg/mL (≈ 0.238 µM)	0.10 µg/mL (≈ 0.119 µM)	0.20 µg/mL (≈ 0.238 µM)	0.05 µg/mL (≈ 0.0594 µM)	0.10 µg/mL (≈ 0.119 µM)	0.025 µg/mL (≈ 0.0297 µM)				Stability in rat plasma (remaining antibacterial activity with time) [9]: more stable in the rat plasma than RKM; enhancement of the antibacterial activity compared to RKM and LM-A7 [10]: two-fold
C=CCOC1CC(=O)OC(C)CC=CC=CC(O)C(C)CC(CC=O)C(OC2OC(C)C(OC3CC(C)(OC(=O)CC)C(OC(=O)CCC)C(C)O3)C(N(C)C)C2O)C1OC (centres unmarked) [Example 5, 3-O-Allylrokitamycin]	6.25 µg/mL (≈ 7.2 µM)	0.10 µg/mL (≈ 0.115 µM)	0.39 µg/mL (≈ 0.449 µM)	0.20 µg/mL (≈ 0.23 µM)	0.39 µg/mL (≈ 0.449 µM)	0.20 µg/mL (≈ 0.23 µM)	0.20 µg/mL (≈ 0.23 µM)	0.10 µg/mL (≈ 0.115 µM)				
COC1CC(=O)OC(C)CC=CC=CC(O)C(C)CC(CC=O)C(OC2OC(C)C(OC3CC(C)(OC)C(OCCC(C)C)C(C)O3)C(N(C)C)C2O)C1OC (centres unmarked) [Example 20, 4″-O-Isoamyl-3,3″-di-O-methylleucomycin V]	1.56 µg/mL (≈ 1.95 µM)	0.05 µg/mL (≈ 0.0625 µM)	0.39 µg/mL (≈ 0.487 µM)	0.20 µg/mL (≈ 0.25 µM)	0.39 µg/mL (≈ 0.487 µM)	0.10 µg/mL (≈ 0.125 µM)	0.10 µg/mL (≈ 0.125 µM)	0.10 µg/mL (≈ 0.125 µM)				antibacterial activity compared with the compound described in Example 7 of U.S. Pat. No. 5,407,918 ([10]; comparison of MIC values of Table 1-2): almost the same antibacterial activity
CCC(=O)OC1C(C)OC(OC2C(C)OC(OC3C(CC=O)CC(C)C(O)C=CC=CCC(C)OC(=O)CC(OC)C3OC)C(O)C2N(C)C)CC1(C)O (centres unmarked) [Example 23, 3-O-Methylleucomycin A7]	1.56 µg/mL (≈ 2.02 µM)	0.05 µg/mL (≈ 0.0648 µM)	0.78 µg/mL (≈ 1.01 µM)	0.20 µg/mL (≈ 0.259 µM)	0.20 µg/mL (≈ 0.259 µM)	0.10 µg/mL (≈ 0.13 µM)	0.10 µg/mL (≈ 0.13 µM)	0.10 µg/mL (≈ 0.13 µM)				enhancement of the antibacterial activity compared to RKM and LM-A7 [10]: two-fold
CCC(=O)OC1C(C)OC(OC2C(C)OC(OC3C(CC=O)CC(C)C(O)C=CC=CCC(C)OC(=O)CC(OC(=O)c4ccccc4)C3OC)C(O)C2N(C)C)CC1(C)O (centres unmarked) [Example 25, 3-O-Benzoylleucomycin A7]	6.25 µg/mL (≈ 7.25 µM)		1.56 µg/mL (≈ 1.81 µM)	0.39 µg/mL (≈ 0.452 µM)			0.39 µg/mL (≈ 0.452 µM)		0.39 µg/mL (≈ 0.452 µM)	>100 µg/mL	>100 µg/mL	
CCC(=O)OC1C(C)OC(OC2C(C)OC(OC3C(CC=O)CC(C)C(O)C=CC=CCC(C)OC(=O)CC(OC(=O)c4ccccc4)C3OC)C(O)C2N(C)C)CC1(C)O (stereo not drawn) [Example 48, 3-Epi-3-O-benzoylleucomycin A7]	6.25 µg/mL (≈ 7.25 µM)		0.78 µg/mL (≈ 0.905 µM)	0.39 µg/mL (≈ 0.452 µM)	0.78 µg/mL (≈ 0.905 µM)		0.20 µg/mL (≈ 0.232 µM)		0.20 µg/mL (≈ 0.232 µM)	25 µg/mL (≈ 29 µM)	25 µg/mL (≈ 29 µM)	antibacterial activity against the resistant strains of Streptococcus pneumoniae, compared with Example 25 [14]: improvement in antibacterial activity
CCC(=O)O[C@H]1[C@H](C)O[C@@H](O[C@H]2[C@H](N(C)C)[C@@H](O)[C@H](O[C@H]3[C@@H](CC=O)C[C@@H](C)[C@@H](O)/C=C/C=C/C[C@@H](C)OC(=O)C[C@@H](O)[C@@H]3OC)O[C@@H]2C)C[C@@]1(C)O [LM-A7, leucomycin-A7, reference compound]	1.56 µg/mL (≈ 2.06 µM)	0.10 µg/mL (≈ 0.132 µM)	0.78 µg/mL (≈ 1.03 µM)	0.39 µg/mL (≈ 0.515 µM)	0.39 µg/mL (≈ 0.515 µM)	0.20 µg/mL (≈ 0.264 µM)	0.20 µg/mL (≈ 0.264 µM)	0.10 µg/mL (≈ 0.132 µM)	0.39 µg/mL (≈ 0.515 µM)	>100 µg/mL	>100 µg/mL	
CCCC(=O)O[C@H]1[C@H](C)O[C@@H](O[C@H]2[C@H](N(C)C)[C@@H](O)[C@H](O[C@H]3[C@@H](CC=O)C[C@@H](C)[C@@H](O)/C=C/C=C/C[C@@H](C)OC(=O)C[C@@H](O)[C@@H]3OC)O[C@@H]2C)C[C@@]1(C)OC(=O)CC [RKM, rokitamycin, reference compound]												MIC [1, 15]: 1.56 µg/mL (≈ 1.88 µM); MIC [2, 15]: 0.05 µg/mL (≈ 0.0604 µM); MIC ([3]; W0500, agar plates, read-out: Minimum inhibitory concentration (MIC)): 0.2 µg/mL (≈ 0.242 µM); MIC [4, 15]: 0.2 µg/mL (≈ 0.242 µM); MIC ([5]; Staphylococcus aureus, 20 h, read-out: Minimum inhibitory concentration (MIC)): 0.39 µg/mL (≈ 0.471 µM); MIC ([6]; DP1TYPEI, read-out: Minimum inhibitory concentration (MIC)): 0.1 µg/mL (≈ 0.121 µM); MIC ([7]; Streptococcus pneumoniae, 20 h, read-out: Minimum inhibitory concentration (MIC)): 0.2 µg/mL (≈ 0.242 µM); MIC [8, 15]: 0.05 µg/mL (≈ 0.0604 µM)
